Biological target: human TMEM16A (TMEM16Aabc variant) (Homo sapiens, UniProt Q5XXA6, DEL476-501, form not given)
Assay: Automated whole-cell patch clamp (Qpatch) TMEM16A potentiator assay in FRT cells stably expressing human TMEM16A
Format: cell-based
Settings: for % Potentiation @ 3.33 μM Avg: 3.33 μM solution of test compound, percentage increase of baseline TMEM16A current; for EC50: calculated EC50, Qpatch TMEM16A current at +70 mV
Method in brief: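 FRT cells stably expressing human TMEM16Aabc were recorded by automated whole-cell patch clamp, with intracellular Ca2+ buffered for ~EC20 activation, holding −70 mV and step to +70 mV at 0.05 Hz. Compound was applied cumulatively, 5 min per concentration. Peak current increase as % of baseline was fitted to give EC50 and maximum efficacy.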

human TMEM16A (TMEM16Aabc variant), sequence (Q5XXA6 with tags, fused parts or gaps DEL476-501): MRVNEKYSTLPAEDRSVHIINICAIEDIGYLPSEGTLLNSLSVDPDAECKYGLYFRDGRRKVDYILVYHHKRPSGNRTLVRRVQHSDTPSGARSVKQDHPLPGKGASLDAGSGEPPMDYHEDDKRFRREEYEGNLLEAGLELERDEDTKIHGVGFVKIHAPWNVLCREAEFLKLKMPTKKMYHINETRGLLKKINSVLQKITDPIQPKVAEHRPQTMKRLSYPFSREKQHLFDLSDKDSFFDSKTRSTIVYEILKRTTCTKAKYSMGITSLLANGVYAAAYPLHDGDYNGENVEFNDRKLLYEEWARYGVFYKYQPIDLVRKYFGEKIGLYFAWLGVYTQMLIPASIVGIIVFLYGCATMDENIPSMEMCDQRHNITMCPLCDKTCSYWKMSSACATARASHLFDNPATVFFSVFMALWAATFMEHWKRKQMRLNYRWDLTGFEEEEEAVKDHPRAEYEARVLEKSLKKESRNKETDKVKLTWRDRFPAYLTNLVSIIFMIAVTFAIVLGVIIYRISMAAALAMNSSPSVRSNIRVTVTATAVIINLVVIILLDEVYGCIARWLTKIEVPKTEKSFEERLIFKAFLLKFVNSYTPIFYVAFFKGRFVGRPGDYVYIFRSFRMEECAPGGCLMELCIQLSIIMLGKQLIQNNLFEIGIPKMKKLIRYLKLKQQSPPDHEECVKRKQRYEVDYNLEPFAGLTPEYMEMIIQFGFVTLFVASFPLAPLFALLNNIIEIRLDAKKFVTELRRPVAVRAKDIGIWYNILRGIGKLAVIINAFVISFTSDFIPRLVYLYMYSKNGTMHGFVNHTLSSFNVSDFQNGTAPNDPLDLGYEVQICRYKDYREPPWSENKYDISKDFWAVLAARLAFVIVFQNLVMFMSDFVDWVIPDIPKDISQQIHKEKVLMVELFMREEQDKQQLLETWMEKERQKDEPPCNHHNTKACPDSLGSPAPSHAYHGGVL

Compound	% Potentiation @ 3.33 μM Avg	EC50
CC(C)(C#N)NC(=O)c1cc(NC(=O)c2ccc3c(c2)OCC(=O)N3)ccn1 [Example 83.17, N-[2-[(1-Cyano-1-methyl-ethyl)carbamoyl]-4-pyridyl]-3-oxo-4H-1,4-benzoxazine-7-carboxamide]	8%	–
C#CC1(NC(=O)c2cc(NC(=O)Cc3cc(Cl)ccc3O)ccn2)CCCCC1 [Example 35.24, 4-[[2-(5-Chloro-2-hydroxy-phenyl)acetyl]amino]-N-(1-ethynylcyclohexyl)pyridine-2-carboxamide]	120%	10 nM
CC1(NC(=O)c2cc(NC(=O)Cc3cc(F)ccc3O)ccn2)CCC1 [Example 48, 4-[[2-(5-Fluoro-2-hydroxy-phenyl)acetyl]amino]-N-(1-methylcyclobutyl)pyridine-2-carboxamide]	195%	100 nM
C#CC(C)(C)NC(=O)c1cc(NC(=O)Cc2ccccc2Cl)ccn1 [Example 30.1, 4-[[2-(2-Chlorophenyl)acetyl]amino]-N-(1,1-dimethylprop-2-ynyl)pyridine-2-carboxamide]	245%	140 nM
CC(C)(C)NC(=O)c1cc(NC(=O)Cc2cc(Cl)ccc2O)ccc1F [Example 17, N-tert-Butyl-5-[[2-(5-chloro-2-hydroxy-phenyl)acetyl]amino]-2-fluoro-benzamide]	173%	1490 nM
CC(C)(C)NC(=O)c1cc(NC(=O)Cc2cc(C(C)(C)C)ccc2O)ccn1 [Example 10, N-tert-Butyl-4-[[2-(5-tert-butyl-2-hydroxy-phenyl)acetyl]amino]pyridine-2-carboxamide]	250%	220 nM
O=C(Cc1cc(Cl)ccc1O)Nc1ccnc(C(=O)NCCCc2ccccc2)c1 [Example 35.10, 4-[[2-(5-Chloro-2-hydroxy-phenyl)acetyl]amino]-N-(3-phenylpropyl)pyridine-2-carboxamide]	223%	280 nM
CCC(C)(C)NC(=O)c1cc(NC(=O)Cc2ccc(F)cc2O)ccn1 [Example 3.1a, N-(1,1-Dimethylpropyl)-4-[[2-(4-fluoro-2-hydroxy-phenyl)acetyl]amino]pyridine-2-carboxamide]	128%	180 nM
CC(C)C(C)(C)NC(=O)c1cccc(NC(=O)Cc2cc(Cl)ccc2O)c1 [Example 7.5, 3-[[2-(5-Chloro-2-hydroxy-phenyl)acetyl]amino]-N-(1,1,2-trimethylpropyl)benzamide]	239%	280 nM
CC(C)(C)NC(=O)c1cccc(NC(=O)Cc2c(O)ccc(F)c2F)c1 [Example 2.11, N-tert-Butyl-3-[[2-(2,3-difluoro-6-hydroxy-phenyl)acetyl]amino] benzamide]	126%	430 nM
CC(C)(C)NC(=O)c1cc(NC(=O)Cc2ccccc2C#N)ccn1 [Example 23.14, N-tert-Butyl-4-[[2-(2-cyanophenyl)acetyl]amino]pyridine-2-carboxamide]	33%	–
O=C(Cc1cc(Cl)ccc1O)Nc1ccnc(C(=O)NC2CCOCC2)c1 [Example 7.11, 4-[[2-(5-Chloro-2-hydroxy-phenyl)acetyl]amino]-N-tetrahydropyran-4-yl-pyridine-2-carboxamide]	167%	320 nM
CC#CC(C)(C)NC(=O)c1cc(NC(=O)Cc2cc(Cl)ccc2O)ccn1 [Example 73.1, 4-[[2-(5-Chloro-2-hydroxy-phenyl)acetyl]amino]-N-(1,1-dimethylbut-2-ynyl) pyridine-2-carboxamide]	389%	280 nM
CC(C)(C)NC(=O)c1cc(NC(=O)Cc2cc(O)cc(Cl)c2)ccn1 [Example 3.17b, N-tert-Butyl-4-[[2-(3-chloro-5-hydroxy-phenyl)acetyl]amino]pyridine-2-carboxamide]	227%	120 nM
CC(C)(C)NC(=O)c1cc(NC(=O)C2Cc3ccccc3C2)ccn1 [Example 23.3, N-tert-Butyl-4-(indane-2-carbonylamino)pyridine-2-carboxamide]	59%	470 nM
C#CC(C)(C)NC(=O)c1cc(NC(=O)Cc2ccc(C(F)(F)F)cc2)ccn1 [Example 5.35, N-(1,1-Dimethylprop-2-ynyl)-4-[[2-[4-(trifluoromethyl)phenyl]acetyl]amino]pyridine-2-carboxamide]	106%	180 nM
N#CC1(NC(=O)c2cc(NC(=O)Cc3ccccc3Cl)ccn2)CC1 [Example 30.7, 4-[[2-(2-Chlorophenyl)acetyl]amino]-N-(1-cyanocyclopropyl)pyridine-2-carboxamide]	124%	340 nM
O=C(Cc1cc(Cl)ccc1O)Nc1ccnc(C(=O)Nc2ncc[nH]2)c1 [Example 32.9, 4-[[2-(5-Chloro-2-hydroxy-phenyl)acetyl]amino]-N-(1H-imidazol-2-yl)pyridine-2-carboxamide]	31%	–

Compound	% Potentiation @ 3.33 μM Avg	EC50
N#CC1(NC(=O)c2cc(NC(=O)Cc3cc(Cl)ccc3O)ccn2)CCOC1 (stereo not drawn) [Example 47, 4-[[2-(5-Chloro-2-hydroxy-phenyl)acetyl]amino]-N-(3-cyanotetrahydrofuran-3-yl)pyridine-2-carboxamide]	237%	180 nM
O=C(Cc1ccccc1Cl)Nc1ccnc(C(=O)NC23CCC(F)(C2)C3)c1 [Example 30.2, 4-[[2-(2-Chlorophenyl)acetyl]amino]-N-(4-fluoro-1-bicyclo[2.1.1]hexanyl)pyridine-2-carboxamide]	221%	180 nM
CCC(C)(C)NC(=O)c1cccc(NC(=O)Cc2ccc(F)cc2O)c1 [Example 2.13, N-(1,1-Dimethylpropyl)-3-[[2-(4-fluoro-2-hydroxy-phenyl)acetyl]amino] benzamide]	126%	460 nM
O=C(Cc1cc(Cl)ccc1O)Nc1ccnc(C(=O)NC2CCNCC2(F)F)c1 (stereo not drawn) [Example 32.8, 4-[[2-(5-Chloro-2-hydroxy-phenyl)acetyl]amino]-N-(3,3-difluoro-4-piperidyl)pyridine-2-carboxamide]	79%	–
CC(C)(C)NC(=O)c1cc(NC(=O)Cc2cc(Cl)c(CN3CCCC3)cc2O)ccn1 [Example 27, N-tert-Butyl-4-[[2-[5-chloro-2-hydroxy-4-(pyrrolidin-1-ylmethyl)phenyl]acetyl]amino]pyridine-2-carboxamide]	90%	–
CC(C#N)(CO)NC(=O)c1cc(NC(=O)Cc2cc(Cl)ccc2O)ccn1 (racemic) [Example 46, 4-[[2-(5-Chloro-2-hydroxy-phenyl)acetyl]amino]-N-(1-cyano-2-hydroxy-1-methyl-ethyl)pyridine-2-carboxamide]	275%	250 nM
CC(C)(C)NC(=O)c1cccc(NC(=O)Cc2cc(F)cc(F)c2O)c1 [Example 2.9, N-tert-Butyl-3-[[2-(3,5-difluoro-2-hydroxy-phenyl)acetyl]amino] benzamide]	148%	990 nM
CC(C)(C)NC(=O)c1cc(NC(=O)Cc2ccc3c(c2)OCCO3)ccn1 [Example 5.31]	145%	–
CC(C)(C)NC(=O)c1cc(NC(=O)Nc2ccccc2O)ccn1 [Example 65, N-tert-Butyl-4-[(2-hydroxyphenyl)carbamoylamino]pyridine-2-carboxamide]	55%	–
O=C(Cc1cc(Cl)ccc1O)Nc1cccc(C(=O)NC2CCOCC2)c1 [Example 7.4, 3-[[2-(5-Chloro-2-hydroxy-phenyl)acetyl]amino]-N-tetrahydropyran-4-yl-benzamide]	52%	650 nM
COCC(C)(C)NC(=O)c1cccc(NC(=O)Cc2ccccc2O)c1 [Example 1.9, 3-[[2-(2-Hydroxyphenyl)acetyl]amino]-N-(2-methoxy-1,1-dimethyl-ethyl)benzamide]	79%	4200 nM
O=C(Cc1cc(F)ccc1O)Nc1ccnc(C(=O)NC2(CO)CCOC2)c1 (stereo not drawn) [Example 72, 4-[[2-(5-Fluoro-2-hydroxy-phenyl)acetyl]amino]-N-[3-(hydroxymethyl)tetrahydrofuran-3-yl]pyridine-2-carboxamide]	53%	–
CC(C)(C)OC(=O)N1CCCC(NC(=O)c2cc(NC(=O)Cc3cc(Cl)ccc3O)ccn2)C1 (stereo not drawn) [Example 8.1, tert-Butyl-3-[[4-[[2-(5-chloro-2-hydroxy-phenyl)acetyl]amino]pyridine-2-carbonyl]amino]piperidine-1-carboxylate]	155%	590 nM
CC(C)(C)NC(=O)c1cccc(NC(=O)Cc2cccc(O)c2)c1 [Example 4, N-tert-Butyl-3-[[2-[3-hydroxyphenyl]acetyl]amino]benzamide]	96%	1500 nM
N#CC1(NC(=O)c2cc(NC(=O)Cc3cccc(Cl)c3)ccn2)CC1 [Example 23.1, 4-[[2-(3-Chlorophenyl)acetyl]amino]-N-(1-cyanocyclopropyl)pyridine-2-carboxamide]	150%	–
Nc1cccc(CNC(=O)c2cc(NC(=O)Cc3cc(Cl)ccc3O)ccn2)n1 [Example 32, N-[(6-Amino-2-pyridyl)methyl]-4-[[2-(5-chloro-2-hydroxy-phenyl)acetyl]amino]pyridine-2-carboxamide]	171%	–
CC(C)(C)NC(=O)c1cc(NC(=O)Cc2ccc(O)c(Cl)c2)ccn1 [Example 5.21, N-tert-Butyl-4-[[2-(3-chloro-4-hydroxy-phenyl)acetyl]amino]pyridine-2-carboxamide]	172%	510 nM

Source: patent publication US20200361871A1 (Enterprise Therapeutics Ltd., priority 2018, published 2020)
